According to the CheMixHub viscosity set:

Test: xn = mol fraction of the nth substance listed

C1C[C@@H]2[C@H]3CC[C@H](C3)[C@@H]2C1 + CC(C)CO
viscosity [mPa·s], 100 kPa
Conditions | x1 = 0.1002 | x1 = 0.2 | x1 = 0.3002 | x1 = 0.4003 | x1 = 0.4998 | x1 = 0.6003 | x1 = 0.7002 | x1 = 0.7994 | x1 = 0.8979
293.15 K | 3.668 | 3.397 | 3.217 | 3.04 | 2.883 | 2.814 | 2.769 | 2.78 | 2.848
298.15 K | 3.135 | 2.923 | 2.772 | 2.644 | 2.541 | 2.489 | 2.47 | 2.493 | 2.563
303.15 K | 2.692 | 2.526 | 2.408 | 2.318 | 2.247 | 2.219 | 2.219 | 2.249 | 2.323
308.15 K | 2.325 | 2.196 | 2.108 | 2.044 | 1.998 | 1.99 | 2.003 | 2.037 | 2.113
313.15 K | 2.02 | 1.92 | 1.856 | 1.814 | 1.787 | 1.79 | 1.814 | 1.854 | 1.929
318.15 K | 1.764 | 1.689 | 1.645 | 1.616 | 1.607 | 1.618 | 1.646 | 1.695 | 1.77
323.15 K | 1.551 | 1.494 | 1.465 | 1.448 | 1.452 | 1.471 | 1.507 | 1.555 | 1.627

ClCCCCCl + CC(C)CO
viscosity [mPa·s], 101 kPa
Conditions | x1 = 0.0994 | x1 = 0.1958 | x1 = 0.2938 | x1 = 0.4026 | x1 = 0.5 | x1 = 0.6041 | x1 = 0.7031 | x1 = 0.801 | x1 = 0.8984
298.15 K | 2.524 | 2.027 | 1.715 | 1.501 | 1.371 | 1.285 | 1.236 | 1.208 | 1.215
313.15 K | 1.648 | 1.381 | 1.207 | 1.097 | 1.02 | 0.977 | 0.9567 | 0.9491 | 0.9661

CCC(=O)O + CC(C)O
viscosity [mPa·s], 101 kPa
Conditions | x2 = 0.007361 | x2 = 0.0288 | x2 = 0.04944 | x2 = 0.06903 | x2 = 0.1 | x2 = 0.1291 | x2 = 0.1819 | x2 = 0.2287
298.15 K | 2.67 | 2.6 | 2.54 | 2.475 | 2.4 | 2.342 | 2.277 | 2.22
308.15 K | 1.99 | 1.948 | 1.915 | 1.882 | 1.836 | 1.8 | 1.75 | 1.71
318.15 K | 1.54 | 1.52 | 1.5 | 1.484 | 1.454 | 1.428 | 1.392 | 1.367

C1C[C@@H]2[C@H]3CC[C@H](C3)[C@@H]2C1 + CC(C)OC(C)C
viscosity [mPa·s], 101.33 kPa
Conditions | x2 = 0.1 | x2 = 0.2043 | x2 = 0.3168 | x2 = 0.4 | x2 = 0.4997 | x2 = 0.5937 | x2 = 0.703 | x2 = 0.8066 | x2 = 0.9085
293.15 K | 2.279 | 1.725 | 1.309 | 1.074 | 0.865 | 0.719 | 0.592 | 0.493 | 0.412
298.15 K | 2.062 | 1.572 | 1.206 | 0.995 | 0.802 | 0.666 | 0.556 | 0.473 | 0.391
303.15 K | 1.88 | 1.441 | 1.116 | 0.926 | 0.76 | 0.631 | 0.532 | 0.454 | 0.376
308.15 K | 1.712 | 1.324 | 1.026 | 0.861 | 0.706 | 0.593 | 0.497 | 0.426 | 0.357
313.15 K | 1.573 | 1.226 | 0.95 | 0.799 | 0.659 | 0.558 | 0.469 | 0.402 | 0.338

CCC(=O)O + CCC(C)=O
viscosity [mPa·s], 101 kPa
Conditions | x2 = 0.0847 | x2 = 0.1723 | x2 = 0.2585 | x2 = 0.357 | x2 = 0.4544 | x2 = 0.5554 | x2 = 0.6602 | x2 = 0.7691 | x2 = 0.8822
293.15 K | 1.038 | 0.9722 | 0.9093 | 0.8393 | 0.7718 | 0.7038 | 0.6354 | 0.5665 | 0.4974
303.15 K | 0.9022 | 0.846 | 0.7921 | 0.7324 | 0.6751 | 0.6177 | 0.556 | 0.5027 | 0.4455
313.15 K | 0.7975 | 0.7494 | 0.7031 | 0.6516 | 0.6019 | 0.5519 | 0.5015 | 0.4508 | 0.4

ClCCCCCl + CCC(C)O
101 kPa
Conditions | viscosity [mPa·s]
298.15 K, x1 = 0.1012 | 2.118
298.15 K, x1 = 0.2021 | 1.633
298.15 K, x1 = 0.2996 | 1.408
298.15 K, x1 = 0.4004 | 1.281
298.15 K, x1 = 0.4967 | 1.199
298.15 K, x1 = 0.5999 | 1.158
298.15 K, x1 = 0.7024 | 1.143
298.15 K, x1 = 0.7987 | 1.151
298.15 K, x1 = 0.899 | 1.199
313.15 K, x1 = 0.1002 | 1.369
313.15 K, x1 = 0.2041 | 1.123
313.15 K, x1 = 0.3125 | 0.9913
313.15 K, x1 = 0.3996 | 0.9298
313.15 K, x1 = 0.5046 | 0.8882
313.15 K, x1 = 0.6034 | 0.8716
313.15 K, x1 = 0.7008 | 0.8721
313.15 K, x1 = 0.8052 | 0.8932
313.15 K, x1 = 0.9001 | 0.9458
